Results taken from patent US7378234B2, “Method for isolating hepatitis C virus peptides” (Intercell AG, priority 2002, dated 2008).
“Also recorded” adds a separate entry of the source.

Legend:
[1] = tested on: HLA-A*0201 transgenic mice; test: Immunization of HLA-A*0201 transgenic mice (peptide + CpI), splenocyte IFN-gamma ELISpot; format: in vivo, mouse; conditions: for immunogenicity in HLA-A*0201 transgenic mice (in words): Example II, IFN-gamma ELISpot of splenocytes; for Immunogenicity, peptide-specific IFN-gamma-producing cells, A*0201: HLA-A*0201 transgenic mice, splenocytes
Protocol: (§1) Immunogenicity of synthetic HCV-derived peptides was tested in HLA-DRB1*0401- and HLA-A*0201-transgenic mice as follows: Groups of 3 mice (female, 8 weeks of age) were injected subcutaneously into the flank (in total 100 μg of peptide +30 μg oligodinucleotide CpI (Purimex, Göttingen, Germany) per mouse).
(§2) Mouse splenocyte ELIspot assay for single cell IFN-gamma release ELISpot plates (MAHA S4510, Millipore, Germany) were rinsed with PBS (200 μl/well), coated with anti-mouse IFN-gamma mAb (clone R46A2; 100 μl/well of 5 μg/ml in 0.1 M NaHCO3, pH 9.2-9.5) and incubated overnight at 4° C. Plates were washed four times with PBS/0.1% Tween 20 and incubated with PBS/1% BSA (200 μl/well) at room temperature for 2 h to block nonspecific binding. Spleen cells from vaccinated mice were prepared and plated at 1×10^6-3×10^5 cells/well and incubated overnight at 37° C./5% CO2 either in the presence of the immunizing antigen (peptide), control peptides or with medium alone. Subsequently, plates were washed four times and incubated with biotinylated anti-mouse IFN-gamma mAb (clone AN18.17.24, 100 μl/well of 2 μg/ml in PBS/1% BSA) for 2 h at 37° C. After washing, streptavidin-peroxidase (Roche Diagnostics, Vienna, Austria) was added ( 1/5000 in PBS, 100 μl/well) and plates were incubated at room temperature for 2 additional hours. Subsequently, substrate was added to the washed plates (100 μl/well of a mixture of 10 ml 100 mM Tris pH 7.5 supplemented with 200 μl of 40 mg/ml DAB stock containing 50 μl of 80 mg/ml NiCl2 stock and 5 μl of 30% H2O2). The reaction was stopped after 20-30 minutes by washing the plates with tap water. Dried plates were evaluated with an ELISpot reader (BIOREADER 2000, BioSys, Karben, Germany).
(§3) As summarized in Table 3, some peptides were either immunogenic (+, less than 100 peptide-specific cells among a million splenocytes) or even strongly immunogenic (++, more than 100 peptide-specific cells among a million splenocytes) in DR4- and/or A*0201-transgenic mice.

[2] = tested on: HLA-B*0702 transgenic mice; test: Vaccination of HLA-B*0702 transgenic mice (peptide + IC31), IFN-gamma ELISpot with spleen cells and CD8+ fraction; format: in vivo, mouse; conditions: for Immunogenicity, peptide-specific IFN-gamma-producing cells, B*0702: HLA-B*0702 transgenic mice, splenocytes; for specific INF-γ producing T cells / HLA-B*0702 epitope in HLA-B*0702 transgenic mice (in words): peptide + IC31, whole spleen cells and CD8+ fraction
Protocol: as §2
Groups of 5 mice (HLA-A*0201-, HLA-DRB1*0401- and HLA-B*0702 transgenic mice, male, 8-14 weeks of age) were injected subcutaneous into the hind footpads with 100 μg of peptide +IC31 per mouse (50 μg per footpad). (PCT/EP01/12041, WO 02/32451 A1 and PCT/EP01/06433, WO 01/93905 A1; IC31 is a combination of the immunizer disclosed in WO 01/93905 and WO 02/32451).
6 days after vaccination single cell suspension of pooled spleens were prepared and additionally pure fractions of CD8+ in the case of A2 and B7 tg mice (CD8+ fraction for B7 mice containing 97% of CD8 and 1.5% of CD4 cells and for A2 tg mice 83% of CD8 and 8% of CD4 cells) and CD4+ for DR4tg mice (CD4+ fraction for DR4tg mice containing 98% of CD4 cells and 0.2% of CD8 cells) were separated from the spleen cell suspension using MACS separating kit (Miltenyi, Germany).

[3] = tested on: HLA-DRB1*0401 transgenic mice; test: Immunization of HLA-DRB1*0401 transgenic mice (peptide + CpI), splenocyte IFN-gamma ELISpot; format: in vivo, mouse; conditions: for immunogenicity in HLA-DRB1*0401 transgenic mice (in words): Example II, IFN-gamma ELISpot of splenocytes; for Immunogenicity, peptide-specific IFN-gamma-producing cells, DRB1*0401: HLA-DRB1*0401 transgenic mice, splenocytes
Protocol: as §1, §2, §3

[4] = target: HLA-DRB1*0404 (Homo sapiens, UniProt P01903+P01911, A100R/A169T/F76Y/I96L/K127E/L162R/M171V/N62H/P40V/Q125Y/R42H/S133A/S149N/S66Y/V209L/W38E); test: Epitope capture / peptide binding, SDS-stability assay, soluble DRB1*0404; conditions: soluble HLA class II, individual peptide confirmed (Table 2)
[5] = target: HLA-DRB1*0101 (Homo sapiens, UniProt P01903+P01911, A100R/D57E/F55L/F60I/F76Y/I96L/L162R/M171V/P40L/Q125E/R42F/V115G/Y59C); test: Epitope capture / peptide binding, SDS-stability assay, soluble DRB1*0101; conditions: soluble HLA class II, individual peptide confirmed (Table 2)

| Sequence | immunogenicity in HLA-A*0201 transgenic mice (in words) [1] | Immunogenicity, peptide-specific IFN-gamma-producing cells, A*0201 [1] | Immunogenicity, peptide-specific IFN-gamma-producing cells, B*0702 [2] | specific INF-γ producing T cells / HLA-B*0702 epitope in HLA-B*0702 transgenic mice (in words) [2] | immunogenicity in HLA-DRB1*0401 transgenic mice (in words) [3] | Immunogenicity, peptide-specific IFN-gamma-producing cells, DRB1*0401 [3] | Binding to DRB1 *0404 [4] | Binding to DRB1 *0101 [5] |
| --- | --- | --- | --- | --- | --- | --- | --- | --- |
| GAAVGSIGLGKVLVDILAGYGAGISGALVAFKIMSGE [Peptide 1555] | immunogenicity | + (immunogenic (+, less than 100 peptide-specific cells among a million splenocytes)) | + (immunogenic (+, less than 100 peptide-specific cells among a million splenocytes)) | HLA-B*0702 epitopes with T-cell activating capacity | immunogenicity | + (immunogenic (+, less than 100 peptide-specific cells among a million splenocytes)) |  |  |
| ARALAHGVRVLEDGVNYATGNLPGCSFSIFLLALLSC [Peptide 1647] | immunogenicity | + (immunogenic (+, less than 100 peptide-specific cells among a million splenocytes)) | + (immunogenic (+, less than 100 peptide-specific cells among a million splenocytes)) | HLA-B*0702 epitopes with T-cell activating capacity |  |  |  |  |
| LPALSTGLIHLHQNIVDVQYLYG [Peptide 1656] |  |  |  |  | immunogenicity | + (immunogenic (+, less than 100 peptide-specific cells among a million splenocytes)) |  |  |
| GAAVGSICLGKVLVDILAGYGAGVAGALVAFKIMSGE [Peptide 1553] | immunogenic | + (immunogenic (+, less than 100 peptide-specific cells among a million splenocytes)) | + (immunogenic (+, less than 100 peptide-specific cells among a million splenocytes)) | HLA-B*0702 epitopes with T-cell activating capacity |  |  |  |  |
| DPRHRSRNVGKVIDTLTCGFADLMGYIPVVGAPLGG [Peptide 1649] |  |  |  |  | immunogenicity | + (immunogenic (+, less than 100 peptide-specific cells among a million splenocytes)) |  |  |
| VDYPYRLWHYPCTVNYTIFKIRMYVGGVEHRL [Peptide 1651] | immunogenicity | ++ (strongly immunogenic (++, more than 100 peptide-specific cells among a million splenocytes)) | + (immunogenic (+, less than 100 peptide-specific cells among a million splenocytes)) | HLA-B*0702 epitopes with T-cell activating capacity | immunogenicity | ++ (strongly immunogenic (++, more than 100 peptide-specific cells among a million splenocytes)) |  |  |
| PEYDLELITSCSSNVSVA [Peptide 1627] | immunogenicity | + (immunogenic (+, less than 100 peptide-specific cells among a million splenocytes)) | ++ (strongly immunogenic (++, more than 100 peptide-specific cells among a million splenocytes)) | HLA-B*0702 epitopes with T-cell activating capacity | immunogenic; also recorded: immunogenicity | + (immunogenic (+, less than 100 peptide-specific cells among a million splenocytes)) |  |  |
| LLFLLLADARVCACLWM [Peptide 1630] | immunogenic | ++ (strongly immunogenic (++, more than 100 peptide-specific cells among a million splenocytes)) |  |  | immunogenic; also recorded: immunogenicity | ++ (strongly immunogenic (++, more than 100 peptide-specific cells among a million splenocytes)) | nb (no binding) | * (weak binding) |
| LTPPHSAKSKYGYGAKEVR [Peptide 1616] |  |  |  |  | immunogenicity | + (immunogenic (+, less than 100 peptide-specific cells among a million splenocytes)) |  |  |
| LEDRDRSQLSPLLHSTTEW [Peptide 1625] |  |  |  |  | immunogenicity | + (immunogenic (+, less than 100 peptide-specific cells among a million splenocytes)) |  |  |
| SGHRMAWDMMMNWSPT [Peptide 1631] | immunogenicity | + (immunogenic (+, less than 100 peptide-specific cells among a million splenocytes)) |  |  | immunogenic | + (immunogenic (+, less than 100 peptide-specific cells among a million splenocytes)) |  | nb (no binding) |
| TGDFDSVIDCNVAVTQ [Peptide 1621] | immunogenicity | + (immunogenic (+, less than 100 peptide-specific cells among a million splenocytes)) | + (immunogenic (+, less than 100 peptide-specific cells among a million splenocytes)) | HLA-B*0702 epitopes with T-cell activating capacity | immunogenicity | + (immunogenic (+, less than 100 peptide-specific cells among a million splenocytes)) | nb (no binding) | * (weak binding) |
| SGMFDSVVLCECYDAGAAWYELTPAETTVRLRAY [Peptide 1563] |  |  | + (immunogenic (+, less than 100 peptide-specific cells among a million splenocytes)) | HLA-B*0702 epitopes with T-cell activating capacity | immunogenicity | + (immunogenic (+, less than 100 peptide-specific cells among a million splenocytes)) |  |  |
| VNLLPAILSPGALVVGVVCAAILRRHVGPGEGAVQWMNRLIAFASRGNHVSPTHYV [Peptide 1526] | immunogenic | + (immunogenic (+, less than 100 peptide-specific cells among a million splenocytes)) | + (immunogenic (+, less than 100 peptide-specific cells among a million splenocytes)) | HLA-B*0702 epitopes with T-cell activating capacity | immunogenic | + (immunogenic (+, less than 100 peptide-specific cells among a million splenocytes)) |  |  |
| YLHAPTGSGKSTKVPVAYAAQGYKVLVLNPSVAATLGFGAY [Peptide 1552] | immunogenicity | + (immunogenic (+, less than 100 peptide-specific cells among a million splenocytes)) | + (immunogenic (+, less than 100 peptide-specific cells among a million splenocytes)) | HLA-B*0702 epitopes with T-cell activating capacity |  |  |  |  |
